Measured values published in patent US8729312B2, “Derivatives of novel peroxides, method of preparation thereof and use thereof in human medicine as well as in cosmetics for the treatment or prevention of acne” (Galderma Research & Development, priority 2009, dated 2014).
≈ marks a conversion by molar mass, not a printed value. Where “and” joins values, the source holds several entries; their conditions need not be identical. Identical values can stand only once.

What was measured:
TPA-induced ear oedema = experiment: Anti-inflammatory activity after a single topical administration in TPA-induced ear oedema; type: in vivo, mouse; details: for Inhibition vs TPA (%) / Ear oedema Mean / anti-inflammatory effect (conclusion in words): single topical application; for Inhibition vs TPA (%): T6h; for Ear oedema Mean: mouse ear thickness at T6h; for ranking compared to BPO at 5%: compound at 5%
Description: the aim is to evaluate the anti-inflammatory activity of the peroxides by measuring the thickness of mouse ear after TPA topical application. The anti-inflammatory activity is defined as a inhibition percentage of the TAP-induced ear oedema.
An oedema was induced by a single topical application of 20 μl of TPA dissolved in acetone at 0.01%.
Then a single topical application of tested compounds dissolved in TPA solution.
Ear thickness was measured at T6h.
Results are expressed in percentages based on the inhibition on the oedema induced by the TPA application.
Benzoyl peroxide (BPO) was tested 2 times as a reference peroxide.

P. acnes CIPA179 = experiment: Minimum inhibitory concentration (MIC) on Propionibacterium acnes, dilution in liquid medium; type: cell-based; details: strain CIPA179, anaerobic, 36° C., minimum 72 h, range 2.5 mg/L to 1280 mg/L
Description: (§1) the aim is to evaluate the anti-bacterial activity of the peroxides by measuring the minimum inhibitory concentration (MIC). The MIC is defined as the lowest concentration of product capable of inhibiting all visible growth.
(§2) The sensitivity of the products is investigated on two strains from the Pasteur Institute collection (CIP) of Propionibacterium acnes (P. acnes): • P. acnes CIP53.117, equivalent to ATCC6919, origin: facial acne lesion (1920), source CRBIP, Pasteur Institute, Paris • P. acnes CIPA179, origin: sebaceous gland (1946), source CRBIP, Pasteur Institute, Paris Tests on the Products:
(§3) The products are dissolved at 1280 mg/L in a mixture of absolute ethanol/sterile Tween 80/sterile Wilkins Chalgren broth ([…]). The dilution ranges used are an adaptation of the method described by the CLSI for methods of dilution in liquid medium. The range consists of 10 concentrations from 2.5 mg/L to 1280 mg/L at intervals of ratio 2.
(§4) The suspension of P. acnes is prepared in Wilkins Chalgren broth and calibrated at an optical density of about 0.4 at wavelength of 525 nm. It is then diluted to 1/10 in Wilkins Chalgren broth and then put in the test cupules to obtain a final suspension of about 10^5-10^6 CFU/mL in each test cupule.
(§5) The solutions of the test products are distributed on a 96-well microplate and incubated at 36° C.±2° C. under anaerobic atmosphere for a minimum of 72 h. The first cupule for which there is no growth visible to the naked eye is regarded as the MIC.

P. acnes CIP53.117 = experiment: as above; type: cell-based; details: strain CIP53.117, anaerobic, 36° C., minimum 72 h, range 2.5 mg/L to 1280 mg/L
Description: as §1, §2, §3, §4, §5

[1] = TPA-induced ear oedema mouse model

CC(=O)OCOc1ccccc1C(=O)OOC(=O)c1ccccc1OCOC(C)=O [Example 1, bis(2-acetoxymethoxy)-benzoyl peroxide]
ranking of Ex n°1 against Ex n°2 (TPA-induced ear oedema; both at 5%, TPA-induced ear oedema mouse model): slightly better than Ex n°2 at 5%
Inhibition vs TPA (%) (TPA-induced ear oedema; compound 1% in TPA 0.01%): 45.7%
Ear oedema Mean (TPA-induced ear oedema; compound 1% in TPA 0.01%): 13.80
Inhibition vs TPA (%) (TPA-induced ear oedema; compound 2.5% in TPA 0.01%): 74.8%
Ear oedema Mean (TPA-induced ear oedema; compound 2.5% in TPA 0.01%): 6.40
Inhibition vs TPA (%) (TPA-induced ear oedema; compound 5% in TPA 0.01%): 81.9%
Ear oedema Mean (TPA-induced ear oedema; compound 5% in TPA 0.01%): 4.60
ranking compared to BPO at 5% (TPA-induced ear oedema; [1]): superior compared to BPO 5%
anti-inflammatory effect (conclusion in words) (TPA-induced ear oedema; [1]): strong dose-dependent anti-inflammatory effect
MIC (minimum inhibitory concentration) (P. acnes CIPA179): 320 µg/mL (≈ 765 µM)
MIC (minimum inhibitory concentration) (P. acnes CIP53.117): 320 µg/mL (≈ 765 µM)

CC(=O)OCOc1ccccc1C(=O)OOC(=O)c1ccccc1 [Example 2, (2-acetoxymethoxy-benzoyl)benzoyl peroxide]
Inhibition vs TPA (%) (TPA-induced ear oedema; compound 1% in TPA 0.01%): 19.7%
Ear oedema Mean (TPA-induced ear oedema; compound 1% in TPA 0.01%): 20.40
Inhibition vs TPA (%) (TPA-induced ear oedema; compound 2.5% in TPA 0.01%): 42.5%
Ear oedema Mean (TPA-induced ear oedema; compound 2.5% in TPA 0.01%): 14.60
Inhibition vs TPA (%) (TPA-induced ear oedema; compound 5% in TPA 0.01%): 71.7%
Ear oedema Mean (TPA-induced ear oedema; compound 5% in TPA 0.01%): 7.20
ranking compared to BPO at 5% (TPA-induced ear oedema; [1]): superior compared to BPO 5%
anti-inflammatory effect (conclusion in words) (TPA-induced ear oedema; [1]): moderate anti-inflammatory effect
MIC (P. acnes CIPA179; Cutibacterium acnes): 80 µg/mL (≈ 242 µM)
MIC (P. acnes CIP53.117; Cutibacterium acnes): 160 µg/mL (≈ 484 µM)

O=C(OOC(=O)c1ccccc1)c1ccccc1 [BPO, Benzoyl peroxide, reference compound]
Inhibition vs TPA (%) (TPA-induced ear oedema; compound 5% in TPA 0.01%): 21.4% and 27.8%
Ear oedema Mean (TPA-induced ear oedema; compound 5% in TPA 0.01%): 17.60 and 20.80
